From US11096979B2, “Pharmaceutical composition for preventing or treating liver diseases, containing licorice extract containing glycyrrhizin and liquiritin” (NOVAREX CO., LTD., priority 2016, dated 2021)

Columns and labels:
iNOS, COX2 = assay: iNOS and COX2 mRNA (PCR) in LPS-treated BV2 cells; format: cell-based; details: BV2 cells treated with LPS, FIGS. 3A-3C
Description: (§1) In order to investigate the molecular biological mechanism of the anti-inflammatory effect of the single components derived from the licorice extract, the following test was conducted. BV2 cells were treated with an inflammation inducer LPS, after which the extent of inhibition of the increase in proinflammatory cytokines, iNOS ([…]), COX2 (cyclooxygenase-2), etc. by three components (glycyrrhizin, liquiritin and liquiritigenin) was measured based on changes in mRNA using a PCR technique.

[1] = tested on: cultured hepatocytes (HepG2); details: human, 100 μM
[2] = tested on: HepG2 cells with hepatotoxicity induced by t-BHP; assay: Inhibition of t-BHP-induced hepatotoxicity in cultured hepatocytes; details: HepG2, FIG. 6
[3] = tested on: NO production by LPS in BV2 cells; assay: Inhibition of NO production by LPS in BV2 cells; format: cell-based; details: BV2 cells, 10, 20 and 50 μM, after 24 hr, FIG. 2
Description: In order to evaluate the anti-inflammatory effects of single components derived from the licorice extract, BV2 cells were treated with glycyrrhizin, liquiritin and liquiritigenin at concentrations of 10, 20 and 50 μM, after which the inhibition of NO production by LPS (Lipopolysaccharide) was measured after 24 hr.

TNF-α, IL-1β, IL-6 = assay: Inflammation-related cytokine mRNA (PCR) in LPS-treated BV2 cells; format: cell-based; details: BV2 cells treated with LPS, FIGS. 4A-4C
Description: as §1

[4] = tested on: cultured hepatocytes (HepG2); assay: Cell viability of HepG2 cells treated with single components or t-BHP; details: HepG2, t-BHP alone, FIG. 6

Row | SMILES | expression of iNOS and COX2 (mRNA) (iNOS, COX2) | cell viability [1] [%] | inhibition of hepatotoxicity induced by t-BHP [2] | inhibition of NO production by LPS [3] | expression of inflammation-related cytokines (TNF-α, IL-1β, IL-6) (TNF-α, IL-1β, IL-6) | cell viability upon treatment with t-BHP [4]
1 | O=C1C[C@@H](c2ccc(O[C@@H]3O[C@H](CO)[C@@H](O)[C@H](O)[C@H]3O)cc2)Oc2cc(O)ccc21 [liquiritin] | decreased the expression of iNOS and COX2 more strongly than glycyrrhizin | ≥ 95 | hepatotoxicity inhibition effects increased with the treatment concentration thereof |  |  | 
2 | O=C1C[C@@H](c2ccc(O)cc2)Oc2cc(O)ccc21 [liquiritigenin] | also exhibited reduction effects |  | hepatotoxicity inhibition effects increased with the treatment concentration thereof | greatest efficacy |  | 
3 | CC1(C)[C@@H](O[C@H]2O[C@H](C(=O)O)[C@@H](O)[C@H](O)[C@H]2O[C@@H]2O[C@H](C(=O)O)[C@@H](O)[C@H](O)[C@H]2O)CC[C@]2(C)[C@H]3C(=O)C=C4[C@@H]5C[C@@](C)(C(=O)O)CC[C@]5(C)CC[C@@]4(C)[C@]3(C)CC[C@@H]12 [glycyrrhizin] |  | ≥ 95 | hepatotoxicity inhibition effects increased with the treatment concentration thereof |  | inhibited more strongly | 
4 | CC(C)(C)OO [t-BHP, t-butyl hydroperoxide] |  |  |  |  |  | about 30%
